{
  "source": "ChEMBL document CHEMBL1139335",
  "about": "“Enaminones 8: CoMFA and CoMSIA studies on some anticonvulsant enaminones” (Bioorg Med Chem, 2009)",
  "note": "Active and inactive are the calls of the source. No cut-off for these calls is given here.",
  "data": [
    {"tested_on": "Mus musculus", "assay": "Anticonvulsant activity in mouse assessed as inhibition of pentylenetetrazole-induced seizure at 100 mg/kg", "assay_type": "functional, organism-based", "parameters": "dose 100 mg/kg", "values": [
      {"smiles": "CCOC(=O)C1C(=O)C=C(Nc2ccc(Cl)cc2)CC1C", "note": "(stereo not drawn)", "Activity": "Active"},
      {"smiles": "CC1(C)CC(=O)C=C(NC(=O)c2ccc(C#N)cc2)C1", "Activity": "Active"},
      {"smiles": "NC1=CC(=O)CCC1", "Activity": "Active"},
      {"smiles": "CCOC(=O)C1C(=O)C=C(NC(=O)c2ccc(C)cc2)CC1C", "note": "(stereo not drawn)", "Activity": "Active"},
      {"smiles": "COC(=O)C1C(=O)C=C(Nc2ccc(C(F)(F)F)cc2)CC1(C)C", "note": "(stereo not drawn)", "Activity": "Active"},
      {"smiles": "CCOC(=O)C1C(=O)C=C(Nc2ccc(C#N)cc2)CC1C", "note": "(stereo not drawn)", "Activity": "Active"},
      {"smiles": "COc1ccc(C(=O)NC2=CC(=O)CC(C)C2)cc1", "note": "(stereo not drawn)", "Activity": "Active"},
      {"smiles": "N#Cc1ccc(C(=O)NC2=CC(=O)CCC2)cc1", "Activity": "Active"}
    ]},
    {"tested_on": "Mus musculus", "assay": "Anticonvulsant activity in mouse assessed as inhibition of pentylenetetrazole-induced seizure at 100 to 300 mg/kg", "assay_type": "functional, organism-based", "values": [
      {"smiles": "CC(=O)/C=C(\\C)Nc1ccc(Br)cc1", "Activity": "Active"},
      {"smiles": "CC1CC(=O)C=C(Nc2ccc(F)cc2)C1", "note": "(stereo not drawn)", "Activity": "Active"},
      {"smiles": "COC(=O)C1C(=O)C=C(Nc2ccc(Cl)cc2)CC1(C)C", "note": "(stereo not drawn)", "Activity": "Active"},
      {"smiles": "COC(=O)C1C(=O)C=C(Nc2ccc(Br)cc2)CC1C", "note": "(stereo not drawn)", "Activity": "Active"},
      {"smiles": "COC(=O)C1C(=O)C=C(Nc2ccc(C(F)(F)F)cc2)CC1C", "note": "(stereo not drawn)", "Activity": "Active"},
      {"smiles": "COC(=O)C1C(=O)C=C(Nc2ccc(OC(F)(F)F)cc2)CC1C", "note": "(stereo not drawn)", "Activity": "Active"},
      {"smiles": "COC(=O)C1C(=O)C=C(Nc2ccc(Cl)cn2)CC1C", "note": "(stereo not drawn)", "Activity": "Active"},
      {"smiles": "CCOC(=O)C1C(=O)C=C(Nc2ccc(Cl)cn2)CC1C", "note": "(stereo not drawn)", "Activity": "Active"},
      {"smiles": "CCc1ccc(N/C(C)=C/C(C)=O)cc1", "Activity": "Active"},
      {"smiles": "CC1CC(=O)C=C(Nc2cccc(Br)c2)C1", "note": "(stereo not drawn)", "Activity": "Active"},
      {"smiles": "CCOC(=O)C1C(=O)C2=C(CC1C)Nc1ccc(Cl)cc1S2", "note": "(stereo not drawn)", "Activity": "Active"},
      {"smiles": "CC(=O)/C=C(\\C)Nc1ccc(Cl)cc1", "Activity": "Active"},
      {"smiles": "CCOC(=O)C1C(=O)C=C(Nc2ccc(F)cc2)CC1C", "note": "(stereo not drawn)", "Activity": "Active"},
      {"smiles": "CC1CC(=O)C=C(Nc2ccc(OC(F)(F)F)cc2)C1", "note": "(stereo not drawn)", "Activity": "Active"},
      {"smiles": "COC(=O)C1C(=O)C=C(Nc2ccc(F)cc2)CC1C", "note": "(stereo not drawn)", "Activity": "Active"},
      {"smiles": "CC(=O)/C=C(\\C)Nc1ccc(I)cc1", "Activity": "Active"},
      {"smiles": "CCOC(=O)C1C(=O)C=C(Nc2cc(C)ccc2OC)CC1C", "note": "(stereo not drawn)", "Activity": "Active"},
      {"smiles": "CCOC(=O)C1C(=O)C=C(Nc2ccc(Cl)cc2Cl)CC1C", "note": "(stereo not drawn)", "Activity": "Active"},
      {"smiles": "CCOC(=O)C1C(=O)C=C(Nc2ccc(Cl)c(Cl)c2)CC1C", "note": "(stereo not drawn)", "Activity": "Active"},
      {"smiles": "CC1CC(=O)C=C(Nc2cccc(Cl)c2)C1", "note": "(stereo not drawn)", "Activity": "Active"},
      {"smiles": "COc1ccc(N/C(C)=C/C(C)=O)cc1", "Activity": "Active"},
      {"smiles": "CCOC(=O)C1CCC(Nc2cccc(OC(F)(F)F)c2)=CC1=O", "note": "(stereo not drawn)", "Activity": "Active"},
      {"smiles": "COC(=O)C1C(=O)C=C(Nc2ccccc2F)CC1C", "note": "(stereo not drawn)", "Activity": "Active"},
      {"smiles": "COC(=O)C1C(=O)C=C(Nc2ccc(Cl)c(Cl)c2)CC1C", "note": "(stereo not drawn)", "Activity": "Active"},
      {"smiles": "CC1CC(=O)C=C(Nc2ccc(Cl)cc2)C1", "note": "(stereo not drawn)", "Activity": "Active"}
    ]}
  ]
}
